Test results published in PubChem BioAssay (NCI).
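Interpolation was linear, between the two tested concentrations surrounding the appropriate level; five concentrations were tested over 48 hours in 96-well plates. The concentration for full growth arrest is given as TGI.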

How the values were obtained:
Assay in all cases: NCI-60 cell line screen, 48 h
NCI/ADR-RES ovarian = test system: NCI/ADR-RES ovarian
SK-MEL-28 melanoma = test system: SK-MEL-28 melanoma
OVCAR-5 ovarian = test system: OVCAR-5 ovarian
MCF7 breast = test system: MCF7 breast
CAKI-1 renal = test system: CAKI-1 renal
HCC-2998 colon = test system: HCC-2998 colon
M14 melanoma = test system: M14 melanoma
HS 578T breast = test system: HS 578T breast
KM12 colon = test system: KM12 colon
SW-620 colon = test system: SW-620 colon
HOP-92 NSCLC = test system: HOP-92 NSCLC
COLO 205 colon = test system: COLO 205 colon
HL-60(TB) leukemia = test system: HL-60(TB) leukemia
LOX IMVI melanoma = test system: LOX IMVI melanoma
T-47D breast = test system: T-47D breast
SK-MEL-5 melanoma = test system: SK-MEL-5 melanoma
NCI-H226 lung = test system: NCI-H226 lung
CCRF-CEM leukemia = test system: CCRF-CEM leukemia
UACC-62 melanoma = test system: UACC-62 melanoma
A498 renal = test system: A498 renal
A549 NSCLC = test system: A549 NSCLC
HCT-116 colon = test system: HCT-116 colon
SNB-19 CNS = test system: SNB-19 CNS
NCI-H460 lung = test system: NCI-H460 lung
OVCAR-3 ovarian = test system: OVCAR-3 ovarian
TK-10 renal = test system: TK-10 renal
DU-145 prostate = test system: DU-145 prostate
RPMI-8226 leukemia = test system: RPMI-8226 leukemia
HT29 colon = test system: HT29 colon
OVCAR-4 ovarian = test system: OVCAR-4 ovarian
EKVX NSCLC = test system: EKVX NSCLC
U251 CNS = test system: U251 CNS
UACC-257 melanoma = test system: UACC-257 melanoma
SR leukemia = test system: SR leukemia
UO-31 renal = test system: UO-31 renal
NCI-H23 lung = test system: NCI-H23 lung
MOLT-4 leukemia = test system: MOLT-4 leukemia
RXF 393 renal = test system: RXF 393 renal
MDA-MB-435 = test system: MDA-MB-435
786-0 renal = test system: 786-0 renal
K-562 leukemia = test system: K-562 leukemia
BT-549 breast = test system: BT-549 breast
SF-268 CNS = test system: SF-268 CNS
OVCAR-8 ovarian = test system: OVCAR-8 ovarian
IGROV1 ovarian = test system: IGROV1 ovarian
MALME-3M melanoma = test system: MALME-3M melanoma
MDA-N = test system: MDA-N
ACHN renal = test system: ACHN renal
NCI-H522 lung = test system: NCI-H522 lung
MDA-MB-231 breast = test system: MDA-MB-231 breast
SK-MEL-2 melanoma = test system: SK-MEL-2 melanoma
HCT-15 colon = test system: HCT-15 colon
SF-539 CNS = test system: SF-539 CNS
HOP-62 NSCLC = test system: HOP-62 NSCLC
PC-3 prostate = test system: PC-3 prostate
SN12C renal = test system: SN12C renal
SF-295 CNS = test system: SF-295 CNS

Measured: TGI

Cc1cc(=O)oc2cc(OC(=O)N(C)C)c(Cl)cc12
41.5 µM: RXF 393 renal
83.2 µM: UACC-62 melanoma
79 µM: HOP-62 NSCLC
not listed: SF-295 CNS
> 100 µM: all other assays above

O=[N+]([O-])C1CC/C(=N/O)c2nonc21 (stereo not given)
not listed: LOX IMVI melanoma | NCI-H522 lung | SK-MEL-2 melanoma
> 10 µM: all other assays above
